Drawing on ChEMBL document CHEMBL1145304 (Bioorg Med Chem Lett, 2006), this text covers IC50 for 13 compounds.

Assay [1] has as its target Sodium-dependent noradrenaline transporter (Homo sapiens, UniProt P23975).
Description: Inhibition of [3H]NA reuptake at NA transporter in HEK293 cells
Assay [2] concerns the target Sodium-dependent serotonin transporter (Homo sapiens, UniProt P31645). It is filed as cell-based, HEK293.
The target in assay [3] is Sodium-dependent dopamine transporter (Homo sapiens, UniProt Q01959).
Description: Inhibition of [3H]DA reuptake at DA transporter in HEK293 cells

Molecules are shown by their SMILES.

Sodium-dependent dopamine transporter, sequence (Q01959 whole entry): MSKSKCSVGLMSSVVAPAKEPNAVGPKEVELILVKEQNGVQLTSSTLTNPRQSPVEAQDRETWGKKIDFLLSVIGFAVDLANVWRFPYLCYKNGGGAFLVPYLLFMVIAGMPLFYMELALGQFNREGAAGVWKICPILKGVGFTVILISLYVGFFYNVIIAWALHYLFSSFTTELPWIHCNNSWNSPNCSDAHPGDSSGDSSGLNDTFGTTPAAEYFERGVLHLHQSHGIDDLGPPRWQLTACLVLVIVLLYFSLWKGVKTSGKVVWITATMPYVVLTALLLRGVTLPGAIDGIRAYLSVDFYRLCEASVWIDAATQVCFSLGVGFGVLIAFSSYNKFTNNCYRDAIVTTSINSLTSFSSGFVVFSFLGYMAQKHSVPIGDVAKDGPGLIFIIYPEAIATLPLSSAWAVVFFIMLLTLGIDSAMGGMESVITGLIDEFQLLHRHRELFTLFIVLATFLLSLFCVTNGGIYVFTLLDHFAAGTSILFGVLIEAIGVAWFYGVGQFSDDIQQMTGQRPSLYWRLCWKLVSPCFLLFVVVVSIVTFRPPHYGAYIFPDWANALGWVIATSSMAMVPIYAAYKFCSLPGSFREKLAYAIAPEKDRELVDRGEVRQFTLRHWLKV
Sodium-dependent noradrenaline transporter, sequence (P23975 whole entry): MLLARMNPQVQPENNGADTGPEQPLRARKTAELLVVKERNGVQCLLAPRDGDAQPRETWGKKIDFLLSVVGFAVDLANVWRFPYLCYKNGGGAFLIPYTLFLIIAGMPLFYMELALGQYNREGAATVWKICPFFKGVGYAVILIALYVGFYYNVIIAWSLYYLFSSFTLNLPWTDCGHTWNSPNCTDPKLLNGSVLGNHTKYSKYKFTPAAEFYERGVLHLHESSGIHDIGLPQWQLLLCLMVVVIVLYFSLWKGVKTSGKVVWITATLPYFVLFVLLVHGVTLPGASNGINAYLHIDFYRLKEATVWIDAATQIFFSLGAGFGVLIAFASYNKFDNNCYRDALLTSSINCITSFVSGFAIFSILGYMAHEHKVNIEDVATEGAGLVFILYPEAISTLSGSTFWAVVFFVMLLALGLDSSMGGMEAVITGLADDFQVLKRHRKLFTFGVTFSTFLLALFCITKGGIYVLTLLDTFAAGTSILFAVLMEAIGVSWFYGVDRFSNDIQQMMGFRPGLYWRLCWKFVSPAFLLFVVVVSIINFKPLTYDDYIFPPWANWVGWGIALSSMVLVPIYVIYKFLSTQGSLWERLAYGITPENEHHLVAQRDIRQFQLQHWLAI
Sodium-dependent serotonin transporter, sequence (P31645 whole entry): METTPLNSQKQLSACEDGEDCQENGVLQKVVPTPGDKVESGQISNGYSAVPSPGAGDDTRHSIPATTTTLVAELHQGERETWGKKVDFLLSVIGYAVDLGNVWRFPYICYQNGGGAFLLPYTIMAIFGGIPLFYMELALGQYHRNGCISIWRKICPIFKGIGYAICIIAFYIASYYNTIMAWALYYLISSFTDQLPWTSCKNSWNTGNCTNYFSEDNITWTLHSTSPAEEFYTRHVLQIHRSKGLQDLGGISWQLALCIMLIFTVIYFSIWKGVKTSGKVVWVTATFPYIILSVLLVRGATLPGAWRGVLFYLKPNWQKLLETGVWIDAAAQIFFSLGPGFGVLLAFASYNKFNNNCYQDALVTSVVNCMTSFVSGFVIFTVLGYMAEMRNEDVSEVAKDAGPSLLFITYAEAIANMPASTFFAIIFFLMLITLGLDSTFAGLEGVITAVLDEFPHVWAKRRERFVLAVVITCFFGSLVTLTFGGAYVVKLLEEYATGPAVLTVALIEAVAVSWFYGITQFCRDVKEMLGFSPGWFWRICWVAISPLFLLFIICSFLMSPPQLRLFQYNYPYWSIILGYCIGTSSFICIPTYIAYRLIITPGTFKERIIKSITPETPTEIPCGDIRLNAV

Broadly, the IC50 is the point on the concentration scale where inhibition reaches its midpoint. A high value points to weaker potency. In the case of `c1ccc(CCC(c2ccccc2)N2CCNCC2)cc1` (centres undefined), the IC50 in assay [1] is over 400 nM; in assay [2] it was 23 nM.

On to `CCOc1ccccc1CC(c1nccs1)N1CCNCC1` (centres undefined), for which the concentration for half-maximal inhibition (IC50) stood at 340 nM in assay [1] and 39 nM in assay [2].

Turning to `Clc1ccccc1CC(c1ccccc1)N1CCCNCC1` (centres undefined), the figures for the IC50 in assay [1] and in assay [2] were 76 nM and 42 nM, respectively.

Regarding `c1ccc(C(Cc2cccc3ccccc23)N2CCNCC2)cc1` (centres undefined), the figures for the IC50 in assay [1] and in assay [2] were over 400 nM and 12 nM, respectively.

Take `CCOc1ccccc1CC(c1cccnc1)N1CCNCC1` (centres undefined): the results for the IC50 in assay [1], in assay [3] and in assay [2] were 15 nM, over 4000 nM and 46 nM, respectively.

With `CCOc1ccccc1CC(c1cncs1)N1CCNCC1` (centres undefined), the IC50 in assay [1] came to 21 nM; in assay [2], 40 nM.

With `CCOc1ccccc1CC(c1ccccc1)N1CCCNCC1` (centres undefined), the results for the IC50 in assay [1] and in assay [2] were 8.8 nM and 300 nM, respectively.

For `c1ccc(C(Cc2ccncc2)N2CCNCC2)cc1` (centres undefined), the IC50 in assay [1] was over 400 nM; in assay [2], 38 nM.

For the compound `c1ccc(C(Cc2ccccn2)N2CCNCC2)cc1` (centres undefined), the IC50 in assay [1] was over 400 nM; in assay [2], 230 nM.

As to `Clc1ccccc1CC(c1cncs1)N1CCNCC1` (centres undefined), the values for the IC50 in assay [1] and in assay [2] were 120 nM and 12 nM, respectively.

Take `Clc1ccccc1CC(c1cccnc1)N1CCNCC1` (centres undefined): the half-inhibitory concentration (IC50) in assay [1] is 75 nM; in assay [3], 9200 nM; in assay [2], 14 nM.

Consider `c1ccc(CCC(Cc2ccccc2)N2CCNCC2)cc1` (centres undefined), for which the IC50 in assay [1] was 48 nM; in assay [3] it was 400 nM; in assay [2], 23 nM.

With `c1ccc(C(Cc2ccc3ccccc3c2)N2CCNCC2)cc1` (centres undefined), the IC50 is over 400 nM in assay [1] and 17 nM in assay [2].
